Entries after “also recorded” stand apart in the source; their conditions may differ.
Assays:
Type in all cases: cell-based, human
[1] = system: neutrophil adhesion to the endothelial monolayer; experiment: LTB4 induced neutrophil adhesion to the endothelial monolayer; conditions: data not shown
Procedure: Turning now to FIG. 1, FIG. 1 graphically depicts neutrophil adhesion to and migration through human microvascular endothelial cell monolayers (HMECs) in a two-compartment system upon administration of an LTB4 gradient in the lower chamber over time. HMECs were plated on porous 8 μm (micron) transwell two-chamber inserts and allowed to reach confluency for migration assays. For the adhesion assay, HMECs were plated on 48-well plates. 100 nM LTB4 and 500,000 neutrophils were added to the upper compartment to initiate adhesion, while 500,000 neutrophils were added to the upper compartment and LTB4 to the lower compartment to initiate migration. Both neutrophil adhesion and migration were measured over 3 h and expressed as % change in adhesion and the fraction of migrated cells in chemoattractant stimulated experiments vs. controls which had no chemoattractant added. […]
Confluent HMEC monolayers were plated on 48-well plates for adhesion studies, transwells for migration studies, and pretreated with a variety of pharmacological inhibitors and activators for 1 hour. […] For adhesion assays, LTB4 was added along with 500,000 neutrophils and allowed to adhere for 1 h (time of max, adhesion as determined in FIG. 1). […] The data are shown as % change in migration and adhesion as assessed by MPO assay. All values are expressed as means+SE. […]

[2] = system: neutrophil migration across confluent HMEC monolayers; experiment: TNF-α induced neutrophil migration across HMEC monolayers; conditions: HMECs; 24 h TNF-α 10 or 20 ng/ml; 100 nM, 1 h pretreatment
Procedure: FIG. 4 graphically depicts the effect of PMA on TNF-α induced neutrophil migration.
Turning now to FIG. 5, FIG. 5 graphically depicts the effect of Bryostatin-1 on TNF-α induced neutrophil migration.
Migration Assays: At confluency HMECs were treated for 1 h at 37° C. with Bryostatin-1 (10 nM, 100 nM) in MCDB-131 media or MCDB-131 media alone. Inserts were washed three times with Hank's Balanced Salt Solution (HBSS) (to eliminate drug effects on the neutrophils) and placed in a new plate containing either 500 μL 100 nM LTB4, or HBSS alone for control. 500 μL HBSS was then added to the top well and spiked with 500,000 neutrophils. For TNF-α experiments, HMECs were left in 20 ng/ml TNF-α in MCDB-131 for 24 h TNF-α was removed and HMECs washed three times. […] Migration was stopped by removing the inserts and migration was measured using the myeloperoxidase (MPO) assay.
(§1) Myeloperoxidase Assay: Neutrophil migration was measured using myeloperoxidase (MPO) analysis. […] The supernatant was removed, and MPO activity was measured using TMB/peroxide as chromogen. The reaction was stopped with sulfuric acid and absorbance was read at 450 nm using a microplate reader. […] Data was expressed as “% neutrophil migration”, which allowed cumulative statistical analysis to be done and account for unpreventable batch-to-batch variations.

neutrophil migration = experiment: Neutrophil migration induced by 24 h TNF-α pretreatment combined with a 100 nM LTB4 gradient; conditions: 24 h TNF-α pretreatment and 100 nM LTB4 gradient; data not shown
Procedure: Migration Assays: At confluency HMECs were treated for 1 h at 37° C. with Bryostatin-1 (10 nM, 100 nM) in MCDB-131 media or MCDB-131 media alone. Inserts were washed three times with Hank's Balanced Salt Solution (HBSS) (to eliminate drug effects on the neutrophils) and placed in a new plate containing either 500 μL 100 nM LTB4, or HBSS alone for control. 500 μL HBSS was then added to the top well and spiked with 500,000 neutrophils. For TNF-α experiments, HMECs were left in 20 ng/ml TNF-α in MCDB-131 for 24 h TNF-α was removed and HMECs washed three times. HMECs were treated for 1 h with Bryostatin-1 in endothelial growth medium (EGM) (10 nM, 100 nM). The drug was removed, and cells were washed three times. […] Neutrophils were allowed to migrate for 3 h at 37° C. Migration was stopped by removing the inserts and migration was measured using the myeloperoxidase (MPO) assay.
as §1

[3] = system: neutrophil migration across HUVECs; experiment: Time course of LTB4 induced neutrophil migration across HUVECs; conditions: single 1 h 100 nM pretreatment, washed, tested at 0, 24, 48 h
Procedure: Time Course Assays: At confluency, HUVECs were treated for 1 h at 37° C. with Bryostatin-1 (10 nM, 100 nM) in EGM or EGM alone. Inserts were washed three times with HBSS (to reduce drug effects on the neutrophils) and migration assays were ran at t=0, 24, or 48 h. After time elapsed, HUVECs were placed in a new plate containing either 500 μL 100 nM LTB4 or HBSS alone for control. 500 μL HBSS was then added to the top well and spiked with 500,000 neutrophils. Neutrophils were allowed to migrate for 3 h at 37° C. Migration was stopped by removing the inserts and migration was measured using the MPO assay.
Myeloperoxidase Assay: Neutrophil migration was measured using myeloperoxidase (MPO) analysis. Cell culture inserts were first removed, and plates were spun at 1,500 RPM for 5 min. The supernatant was removed, and MPO activity was measured using TMB/peroxide as chromogen. The reaction was stopped with sulfuric acid and absorbance was read at 450 nm using a microplate reader. All experiments were performed n=6. Data was expressed as “% neutrophil migration”, which allowed cumulative statistical analysis to be done and account for unpreventable batch-to-batch variations.

HMEC = experiment: Alamar blue endothelial viability assay, HMEC; conditions: single 1 h 100 nM treatment; 1, 24, 48 h
Procedure: (§2) Viability Assay. The Alamar blue assay was used to determine endothelial viability after pharmacological intervention. Alamar blue contains a REDOX indicator that results in a color change upon chemical reduction by cellular metabolic activity. Endothelial cells were treated with Bryostatin-1 (100 nM) for 1 h and washed three times with HBSS. Alamar blue (10%) in media was added for 2.5 h at T=0, 24, or 48 hours after drug treatment and the ratio of absorbances (570-600 nm) was measured to determine metabolic activity.

HUVEC = experiment: Alamar blue endothelial viability assay, HUVEC; conditions: for HUVEC viability at 48 h: 48 h after a single 1 h 100 nM treatment; for HUVEC viability at 1 and 24 h: single 1 h 100 nM treatment, 1, 24 h
Procedure: as §2

Row | Compound | effect on LTB4 induced adhesion to the endothelial monolayer [1] | effect on TNF-α induced neutrophil TEM (Type II migration) [2] | effect on migration induced by TNF-α pretreatment plus LTB4 gradient (neutrophil migration) | time after pretreatment for which reduction of LTB4 induced migration is maintained, HUVECs [3] | HMEC viability (HMEC) | HUVEC viability at 48 h (HUVEC) | HUVEC viability at 1 and 24 h (HUVEC)
1 | CCC/C=C/C=C/C(=O)O[C@H]1/C(=C/C(=O)OC)C[C@H]2C[C@H]([C@@H](C)O)OC(=O)C[C@H](O)C[C@@H]3C[C@H](OC(C)=O)C(C)(C)[C@](O)(C[C@@H]4C/C(=C/C(=O)OC)C[C@H](/C=C/C(C)(C)[C@]1(O)O2)O4)O3 [Bryostatin-1] | Neither PMA, nor Bryostatin-1 reduced LTB4 induced adhesion | attenuated Type II migration; also recorded: totally attenuated | reduced migration | 48 h | no effect | no effect | no effect
2 | CCCCCCCCCCCCCC(=O)O[C@@H]1[C@@H](C)[C@@]2(O)[C@@H](C=C(CO)C[C@]3(O)C(=O)C(C)=C[C@@H]23)[C@@H]2C(C)(C)[C@]12OC(C)=O [PMA, phorbol myristate acetate] | Neither PMA, nor Bryostatin-1 reduced LTB4 induced adhesion | attenuated Type II migration; also recorded: totally attenuated | reduced migration | up to 48 h | no effect | slight but significant reduction in viability | no effect
